Reference: patent US11390625B2, “Aryl-phosphorus-oxygen compound as EGFR kinase inhibitor” (Chia Tai Tianqing Pharmaceutical Group Co., Ltd., priority 2017, dated 2022)

Columns and labels:
[1] = test system: Ba/F3 (EGFR Δ19del/T790M/C797S) cells; assay: Anti-proliferation experiment on cells (2), Ba/F3 (EGFR Δ19del/T790M/C797S); format: cell-based; details: Ba/F3 EGFR, 72 h; Ba/F3 cells, 3 days; read-out: anti-proliferation effect on cells Ba/F3(Δ19del/T790M/C797S) IC50
Experimental: The compounds ware transferred to a 384-well plate, with 125 nL of compound per well. […] After 3 days, 25 μL of detection reagent was added. The plate was incubated at room temperature for 10 minutes and then read with Envision.

[2] = test system: A431 cells (EGFR WT); assay: Cell antiproliferation experiment (1), A431 cells, CellTiter Glo; format: cell-based; details: Homo sapiens, A-431, 72 h, read-out: anti-proliferation effect on cells A431 EGFR WT IC50
Experimental: 1) Cell Culture and Passage
(1) A431 medium: 88% DMEM+10% fetal bovine serum+1% L-glutamine+1% double-antibody
(2) A431 cells were isolated and passaged every 3-4 days, wherein the number of the cells for 3-day passage was 5e6 cells per T75 culture flask, and the number of the cells for 4-day passage was 3e6 cells per T75 culture flask.
2) Day 1: Preparation of Cell Plate
(1) Phosphate buffer, trypsin, and a culture medium were placed in a water bath at 37° C. to preheat.
(2) The original medium was removed from the cell culture flask and washed once with 6 mL of PBS.
(3) 5 mL of phosphate buffer was pipetted into the culture flask to rinse the cells (passage 17), and then the liquid was discarded.
(4) The cell culture flask was added with 3.5 mL of trypsin, and shaken gently, trypsin was removed after fully contact with the cells, and then the culture flask was placed in an incubator containing 5% CO2 at 37° C. for about 1 minute;
(5) The cells were resuspended in 10 mL cell culture medium, and about 0.6 mL of cell suspension was take out for counting (ViCell XR);
(6) The cell suspension was diluted with the medium to the cell density of 5e4 cells per ml, which was required for plating (cell concentration: 2500 cells per well);
(7) 100 μL of phosphate buffer solution was added to each well around the cell plate, while 50 μL of the cell suspension was added to other wells, and the plate was incubated overnight in a incubator containing 5% CO2 at 37° C.
(1) 9 μL of the compound (concentration: 1 mM) was added into a shallow well plate for Echo.
(2) The shallow well plate was centrifuged at 1000 rpm for 10 s and the cell plate was removed from the incubator.
(3) According to the layout of the microplate, the compounds was diluted with a three-fold concentration gradient using Echo, each compound was diluted to 10 concentration gradients and 250 nL of the diluted compounds was respectively added to the cell plate, and then the cell plate was returned to the incubator and further incubated for 3 days.
4) Day 5: Adding CTG and Reading the Plate
(1) After incubation for 72 h, 25 μL of CellTiter Glo was added to each well of the cell plate, followed by shaking the plate for 10 min in the dark.
(2) The plate was read on Envision.
Data analysis: By computer fitting, the corresponding concentration of the compound at 50% inhibition rate was read as the IC50 of the compound for inhibiting cell activity.

[3] = test system: pEGFR Ba/F3 (EGFR Δ19del/T790M/C797S) cells; assay: Cell phosphorylation inhibition experiment, pEGFR Ba/F3 (EGFR Δ19del/T790M/C797S); format: cell-based; details: Ba/F3 EGFR; Ba/F3 cells, EGF stimulated; read-out: Effect on cellular EGFR phosphorylation Ba/F3(Δ19del/T790M/C797S) IC50
Experimental: The test compounds and reference compounds were diluted with 100% DMSO to 10 mM or 1 mM, and then a gradient dilution was performed by using Echo, 150 nL per well, with a three-fold concentration gradient and a ten-point dose response curve. The final concentration of the compounds was 100 μM or 10 μM. The suspension cells was centrifuged at 1000 rp for 5 minutes, suspend in Hanks' balanced salt solution, and added to a 384-well plate containing the compounds at 10 L/120K/well (the cell density of 1.2×10^7), followed by centrifugation at 1200 rpm for 30 s and incubation at 37° C. for 30 min. 5 μL of EGF (which has been diluted with 0.1% BSA Hanks' balanced salt solution) was added to each well, in which the final concentration of EGF was 1 μM. The plate was centrifuged at 1200 rpm for 30 s and incubated at 37° C. for 20 min. 5 μL of 4× lysis buffer containing blocking solution was added to each well, and then the plate was centrifuged at 1200 rpm for 30 s, and incubated at 37° C. for 30 min.

[4] = test system: PC-9 (Δ19del) xenograft; assay: In vivo pharmacodynamics study (2): PC-9 (Δ19del) subcutaneously transplanted tumor in mouse; details: 50 mg/kg (days 0-9); for Tumor volume Day 0 / Tumor volume Day 2 / Tumor volume Day 6 / Tumor volume Day 9 / Tumor volume Day 13 / Tumor volume Day 16 / Tumor volume Day 20 / Tumor volume Day 23: 25 mg/kg (days 10-21) oral once a day
Experimental: 1. Cell culture: lung cancer PC-9 cells were monolayer cultured in vitro, culture conditions: RPMI-1640 (cell culture medium) plus 10% fetal bovine serum, 100 U/mL penicillin and 100 μg/mL streptomycin, culture in a 5% CO2 incubator at 37° C. The cells were conventionally digested with trypsin-EDTA twice a week for passage. When the cell saturation was 80%-90%, and the number reached the requirements, the cells were collected and counted. The density was 5×10^6 cells.
2. Cell inoculation: 0.2 mL (containing 5×10^6 cells) of PC-9 cell suspension (PBS: Matrigel=1:1) was subcutaneously inoculated into the right back of each mouse, with a total of 64 mice. On Day 7 after inoculation, when the average tumor volume measured reached 169 mm^3, the animals were randomly hierarchically grouped based on tumor volume and animal weight, and started to administrate each group. PBS was a phosphate buffer solution, and Matrigel was a matrix.
3. Administration: dosage: Days 0-9: 50 mg/kg; Days 10-21: 25 mg/kg; oral administration; administration frequency: once a day×3 weeks.
Tumor Measurement and Experimental Indicators
Tumor diameter was measured twice a week with a vernier caliper.
The antitumor effect of the compound was evaluated by TGI (%).
The relative tumor volume (RTV) was calculated according to the results of tumor measurement. The calculation formula was RTV=Vt/V0, wherein V0 was the tumor volume measured during group administration (i.e., DO), and Vt was the tumor volume of the corresponding mice measured at a certain time. The data on the same day were taken for TRTV and CRTV.
TGI (%) reflected tumor growth inhibition rate.
After the end of the experiments, the tumor weight would be measured and the TGI (%) was calculated.

[5] = Plasma, tumor and lung exposure in mice of the Ba/F3 CDX efficacy experiment; format: in vivo; details: mouse, 15.0 mg/kg/day oral; for concentration at 2 h / Lung, 2 h / Tumor, 2 h: 2 h after administration
Experimental: On Day 14 after administration to the groups for the efficacy experiment, the plasma was collected from the mice by submandibular blood collection before last administration and 2 hours after last administration, and the plasma samples were collected from the mice at 1 h, 4 h, 8 h and 24 h after administration. About 100 ul of blood was collected each time, placed in an anticoagulation tube, and centrifuged at 8000 rpm for 7 min, to collect plasma, which was stored at −80° C.

| SMILES | IC50 [1] [nM] | IC50 [2] [nM] | IC50 [3] [nM] | Tumor volume Day 0 [4] [mm^3] | Tumor volume Day 2 [4] [mm^3] | Tumor volume Day 6 [4] [mm^3] | Tumor volume Day 9 [4] [mm^3] | Tumor volume Day 13 [4] [mm^3] | Tumor volume Day 16 [4] [mm^3] | Tumor volume Day 20 [4] [mm^3] | Tumor volume Day 23 [4] [mm^3] | TGI ([4]; day 23, 25 mg/kg (days 10-21) oral) [%] | half-life ([5]; BALB/c nude, plasma) [h] | concentration at 2 h ([5]; BALB/c nude, plasma) [µM] | Lung, 2 h [5] [nmol/kg] | Tumor, 2 h [5] [nmol/kg] | AUC(0-t) ([5]; BALB/c nude, plasma) [µM·h] |
| --- | --- | --- | --- | --- | --- | --- | --- | --- | --- | --- | --- | --- | --- | --- | --- | --- | --- |
| COc1cc(N2CCC(N3CCN(C)CC3)CC2)c(C)cc1Nc1ncc(Br)c(Nc2ccc3nccnc3c2P(C)(C)=O)n1 [Compound 34] | 22 | 154 | 19 | 185 | 198 | 92 | 75 | 40 | 45 | 76 | 111 | 100 | 10 | 3.55 | 32533 | 16667 |  |
| CCc1cc(Nc2ncc(Br)c(Nc3ccc4nccnc4c3P(C)(C)=O)n2)c(OC)cc1N1CCC(N2CCN(C)CC2)CC1 [Compound 41] | 9 | 245 | 25 | 184 | 198 | 54 | 44 | 36 | 30 | 37 | 42 |  | 20.5 | 6.99 | 29567 | 18567 | 122 |
